Measurements reported in US8362000B2, “Azetidinyl diamides as monoacylglycerol lipase inhibitors” (Janssen Pharmaceutica NV, priority 2009, dated 2013).
Positions count from the first letter of the chain named. Like-named read-outs stand apart in the source and are kept apart here.

Key:
[1] = target: T1, MGL (Rattus norvegicus, UniProt Q8R431); assay: 2-AG accumulation assay in rat brain homogenate; format: biochemical; conditions: rat brain homogenate, 2-AG accumulation as percent of vehicle; for 2-AG accumulation, % of vehicle control at 0.1 µM: compound 0.1 μM, read-out: Rat Brain 2AG % VehCntrl (%) @ 0.1 μM; for 2-AG accumulation, % of vehicle control at 1 µM: compound 1 μM, read-out: Rat Brain 2AG % VehCntrl (%) @ 1 μM; for 2-AG accumulation, % of vehicle control at 0.01 µM: compound 0.01 μM, read-out: Rat Brain 2AG % VehCntrl (%) @ 0.01 μM; for 2-AG accumulation, % of vehicle control at 10 µM: compound 10 μM, read-out: Rat Brain 2AG % VehCntrl (%) @ 10 μM
T1 construct: one g rat brain was homogenized using a Polytron homogenizer; from tissue; host or cells: rat brain homogenate
T1 sequence (Q8R431 1-303): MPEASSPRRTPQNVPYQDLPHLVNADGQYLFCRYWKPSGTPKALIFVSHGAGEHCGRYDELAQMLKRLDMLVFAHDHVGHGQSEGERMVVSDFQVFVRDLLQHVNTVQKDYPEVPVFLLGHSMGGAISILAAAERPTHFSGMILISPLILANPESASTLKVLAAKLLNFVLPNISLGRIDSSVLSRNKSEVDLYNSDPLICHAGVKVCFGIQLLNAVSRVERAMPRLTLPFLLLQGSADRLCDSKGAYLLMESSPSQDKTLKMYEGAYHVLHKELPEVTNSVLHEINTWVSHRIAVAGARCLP

[2] = target: T2, mutant MGL (Homo sapiens, UniProt Q99685, L169S/L176S); assay: MGL ThermoFluor assay - mutant; format: binding; conditions: ThermoFluor thermal stability binding assay, read-out: MGL mutant ThermoFluor Kd
T2 sequence (Q99685 1-303 L169S/L176S): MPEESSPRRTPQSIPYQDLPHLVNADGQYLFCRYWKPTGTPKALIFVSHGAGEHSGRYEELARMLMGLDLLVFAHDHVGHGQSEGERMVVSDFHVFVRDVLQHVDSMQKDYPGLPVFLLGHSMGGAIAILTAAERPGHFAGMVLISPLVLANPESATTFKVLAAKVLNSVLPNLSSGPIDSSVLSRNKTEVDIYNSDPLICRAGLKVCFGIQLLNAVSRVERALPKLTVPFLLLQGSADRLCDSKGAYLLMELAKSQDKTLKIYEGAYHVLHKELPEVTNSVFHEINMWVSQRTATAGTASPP

[3] = test system: CFA-induced paw radiant heat hypersensitivity; assay: CFA-induced paw radiant heat hypersensitivity; format: in vivo, rat; conditions: Rattus norvegicus, po, 30 mg/kg p.o., HPβCD, last time point 180 or 300 min
Method: Each rat was placed in a test chamber on a warm glass surface and allowed to acclimate for approximately 10 min. A radiant thermal stimulus (beam of light) was then focused through the glass onto the plantar surface of each hind paw in turn. The thermal stimulus was automatically shut off by a photoelectric relay when the paw was moved or when the cut-off time was reached (20 sec for radiant heat at ˜5 amps). An initial (baseline) response latency to the thermal stimulus was recorded for each animal prior to the injection of complete Freund's adjuvant (CFA). […] Immediately following the post-CFA latency assessment, the indicated test compound or vehicle was administered orally.
The percent reversal (% R) of hypersensitivity was calculated in one of two different ways: 1) using group mean values or 2) using individual animal values. More specifically:
Method 2. For some compounds, the % R of hypersensitivity was calculated separately for each animal according to the following formula: % reversal=[(individual treatment response−individual CFA response)/(individual baseline response−individual CFA response)]×100. Results are given as a mean of the maximum % reversal values calculated for each individual animal.

[4] = target: T3, purified wild type MGL (wt-MGLL 6H-11-313) (Homo sapiens, UniProt Q99685)
T3 sequence (Q99685 1-303): T2 sequence (Q99685 1-303 L169S/L176S) with S169L, S176L

[5] = group mean values, read-out: CFA thermal hypersensitivity Method 1: peak % reversal
[6] = individual animal values, read-out: CFA thermal hypersensitivity Method 2: peak % reversal

Row | 2-AG accumulation, % of vehicle control at 0.1 µM [1] | 2-AG accumulation, % of vehicle control at 1 µM [1] | Kd [2] | IC50 [4] | 2-AG accumulation, % of vehicle control at 0.01 µM [1] | 2-AG accumulation, % of vehicle control at 10 µM [1] | SMILES | inhibition in vivo at 30 mg/kg [3, 5] | inhibition in vivo at 30 mg/kg [3, 6]
1 | 276% | 552% | 12.5 nM | < 5 nM |  |  | O=C(c1ccc(-c2cccc(C(F)(F)F)c2)cc1)N1CC(N2CCN(C(=O)c3cscn3)CC2)C1 [Cpd 229, 1-(1,3-Thiazol-4-ylcarbonyl)-4-(1-{[3′-(trifluoromethyl)biphenyl-4-yl]carbonyl}azetidin-3-yl)piperazine] | 55.8% | 56.6%
2 | 290% |  | 5 nM | 10 nM | 153% |  | Cc1cc(-c2cccc(C(F)(F)F)c2)ccc1C(=O)N1CC(N2CCN(C(=O)c3nccs3)CC2)C1 [Cpd 239, 1-(1-{[3-Methyl-3′-(trifluoromethyl)biphenyl-4-yl]carbonyl}azetidin-3-yl)-4-(1,3-thiazol-2-ylcarbonyl)piperazine] | 81.8% | 87.5%
3 | 184% | 538% | 23.2 nM | 50.8 nM |  | 639% | Cc1cc(-c2cccc(C(F)(F)F)c2)ccc1C(=O)N1CC(N2CCN(C(=O)c3cscn3)CC2)C1 [Cpd 240, 1-(1-{[3-Methyl-3′-(trifluoromethyl)biphenyl-4-yl]carbonyl}azetidin-3-yl)-4-(1,3-thiazol-4-ylcarbonyl)piperazine] | 43% | 44.4%
4 | 472% |  | 1.7 nM | < 5 nM | 180% |  | O=C(c1nccs1)N1CCN(C2CN(C(=O)c3ccc(-c4cccc(C(F)(F)F)c4)cc3Cl)C2)CC1 [Cpd 250, 1-(1-{[3-Chloro-3′-(trifluoromethyl)biphenyl-4-yl]carbonyl}azetidin-3-yl)-4-(1,3-thiazol-2-ylcarbonyl)piperazine] | 41.7% | 41.9%
5 | 144% | 586% | 14.3 nM | 17 nM |  | 791% | O=C(c1cscn1)N1CCN(C2CN(C(=O)c3ccc(-c4cccc(C(F)(F)F)c4)cc3Cl)C2)CC1 [Cpd 251, 1-(1-{[3-Chloro-3′-(trifluoromethyl)biphenyl-4-yl]carbonyl}azetidin-3-yl)-4-(1,3-thiazol-4-ylcarbonyl)piperazine] | 35.1% | 38.5%
6 | 107% | 319% | 21.5 nM | 49.4 nM |  | 624% | Cc1cc(-c2ccc(F)c(Cl)c2)ccc1C(=O)N1CC(N2CCN(C(=O)c3cscn3)CC2)C1 [Cpd 253, 1-{1-[(3′-Chloro-4′-fluoro-3-methylbiphenyl-4-yl)carbonyl]azetidin-3-yl}-4-(1,3-thiazol-4-ylcarbonyl)piperazine] | 64.3% | 87.2%
7 | 148% | 525% | 9.1 nM | 8.4 nM |  | 856% | COc1cc(C(=O)N2CC(N3CCN(C(=O)c4cscn4)CC3)C2)ccc1-c1ccc(F)c(Cl)c1 [Cpd 261, 1-{1-[(3′-Chloro-4′-fluoro-2-methoxybiphenyl-4-yl)carbonyl]azetidin-3-yl}-4-(1,3-thiazol-4-ylcarbonyl)piperazine] | 26.4% | 27.5%
8 |  | 395% | 16 nM | 49.8 nM |  |  | O=C(c1cscn1)N1CCN(C2CN(C(=O)c3ccc(-c4ccc(Cl)c(C(F)(F)F)c4)cc3Cl)C2)CC1 [Cpd 266, 1-(1-{[3,4′-Dichloro-3′-(trifluoromethyl)biphenyl-4-yl]carbonyl}azetidin-3-yl)-4-(1,3-thiazol-4-ylcarbonyl)piperazine] | 50.5% | 56.1%
9 | 237% | 512% | 39.2 nM | < 5 nM | 175% | 553% | O=C(c1ccc2nc(-c3ccc(C(F)(F)F)cc3)oc2c1)N1CC(N2CCN(C(=O)c3nccs3)CC2)C1 [Cpd 314, 6-({3-[4-(1,3-Thiazol-2-ylcarbonyl)piperazin-1-yl]azetidin-1-yl}carbonyl)-2-[4-(trifluoromethyl)phenyl]-1,3-benzoxazole] | 41% | 41.2%
10 | 265% | 760% | 16.5 nM | < 5 nM | 243% | 694% | O=C(c1cc2cc(C(F)(F)F)ccc2s1)N1CC(N2CCN(C(=O)c3nccs3)CC2)C1 [Cpd 316, 1-(1,3-Thiazol-2-ylcarbonyl)-4-(1-{[5-(trifluoromethyl)-1-benzothiophen-2-yl]carbonyl}azetidin-3-yl)piperazine] | 69.3% | 70.8%
11 | 941% |  | 0.4 nM | < 5 nM |  |  | O=C(c1nccs1)N1CCN(C2CN(C(=O)c3sc4cc(C(F)(F)F)ccc4c3Cl)C2)CC1 [Cpd 324, 1-(1-{[3-Chloro-6-(trifluoromethyl)-1-benzothiophen-2-yl]carbon-yl}azetidin-3-yl)-4-(1,3-thiazol-2-ylcarbonyl)piperazine] | 48.7% | 55.8%
12 |  | 478% | 92.7 nM | 69.5 nM |  |  | O=C(c1ccccc1)N1CCN(C2CN(C(=O)c3cc4ccc(C(F)(F)F)cc4s3)C2)CC1 [Cpd 325, 1-(Phenylcarbonyl)-4-(1-{[6-(trifluoromethyl)-1-benzothiophen-2-yl]carbonyl}azetidin-3-yl)piperazine] | 62.1% | 63.1%
13 |  | 310% | 6.9 nM | 45.7 nM |  |  | O=C(c1ccccc1)N1CCN(C2CN(C(=O)c3sc4cc(Br)ccc4c3Cl)C2)CC1 [Cpd 331] | 14.3% | 
14 |  | 291% | 3.9 nM | 16.2 nM |  |  | O=C(c1cscn1)N1CCN(C2CN(C(=O)c3sc4cc(Br)ccc4c3Cl)C2)CC1 [Cpd 333, 1-{1-[(6-Bromo-3-chloro-1-benzothiophen-2-yl)carbonyl]azetidin-3-yl}-4-(1,3-thiazol-4-ylcarbonyl)piperazine] | 27.7% | 
15 | 166% | 272% | 49.8 nM | 13 nM | 103% | 671% | O=C(c1cscn1)N1CCN(C2CN(C(=O)c3cc4ccc(C(F)(F)F)cc4s3)C2)CC1 [Cpd 337] | 14.3% | 17.6%
